Experimental data published in patent publication US10828301B2, “2,4-pyrimidinediamine compounds and their uses” (Rigel Pharmaceuticals, Inc, priority 2002, dated 2020).

Assays:
[1] = tested on: cultured human mast cells (CHMC); experiment: CHMC low cell density ionomycin activation: tryptase assay; assay type: cell-based; conditions: Low Density CHMC, ionomycin activation, tryptase readout, read-out: CHMC Ionomycin Tryptase
[2] = tested on: cultured human mast cells (CHMC); experiment: CHMC low cell density IgE activation: tryptase and LTC4 assays; assay type: cell-based; conditions: Low Density CHMC, anti-IgE activation, tryptase readout, read-out: CHMC anti-IgE Tryptase
Description: Pellet CHMC cells (980 rpm, 10 min) and resuspend in pre-warmed MT. Add 65 ul of cells to each 96-well plate. Depending on the degranulation activity for each particular CHMC donor, load 1000-1500 cells/well. Mix four times followed by a 1 hr incubation at 37° C. […] Stimulate cells by adding 25 ul of 6× anti-IgE solution to the appropriate plates. Add 25 ul MT to un-stimulated control wells. Mix twice following addition of the anti-IgE. Incubate at 37° C. for 30 minutes. […] Spin plates at 1000 rpm for 10 min to pellet cells. Transfer 25 ul of supernatant to a 96-well black bottom plate and add 100 ul of freshly diluted tryptase substrate solution to each well. Incubate plates at room temperature for 30 min.
Leukotriene C4 (LTC4) is also quantified using an ELISA kit on appropriately diluted supernatant samples (determined empirically for each donor cell population so that the sample measurement falls within the standard curve) following the supplier's instructions.

CCCCCCOc1ccc(Nc2ncc(F)c(Nc3ccc4c(c3)OCCO4)n2)cc1 [Compound R920664, N4-(3,4-Ethylenedioxyphenyl)-5-fluoro-N2-(4-n-hexyloxyphenyl)-2,4-pyrimidindiamine]
IC50 ([1]; Homo sapiens, Mast cell): > 10 µM | IC50 ([2]; Homo sapiens, Mast cell): > 10 µM

Fc1cnc(Nc2ccc(-n3cnc(Cl)c3Cl)cc2)nc1Nc1ccc2c(c1)OCCO2 [Compound R926788, N2-[4-(4,5-Dichloro-1H-imidazol-1-yl)phenyl]-N4-(3,4-ethylenedioxyphenyl)-5-fluoro-2,4-pyrimidinediamine]
IC50 ([1]; Homo sapiens, Mast cell): 6.34 µM | IC50 ([2]; Homo sapiens, Mast cell): 0.336 µM

Nc1cccc(Nc2nc(Nc3ccc4c(c3)N=CCO4)ncc2F)c1 [Compound R950254, N4-(3-Aminophenyl)-N2-(1,4-benzoxazin-6-yl)-5-fluoro-2,4-pyrimidinediamine]
IC50 ([1]; Homo sapiens, Mast cell): > 10 µM | IC50 ([2]; Homo sapiens, Mast cell): 0.496 µM

Fc1cnc(Nc2ccc3c(c2)OCCO3)nc1Nc1ccc(N2CCN(Cc3ccccc3)CC2)cc1 [Compound R945155, N4-[4-(N-Benzylpiperazino)phenyl]-N2-(3,4-ethylenedioxyphenyl)-5-fluoro-2,4-pyrimidinediamine]
IC50 ([1]; Homo sapiens, Mast cell): > 10 µM | IC50 ([2]; Homo sapiens, Mast cell): 1.88 µM

Oc1cccc(Nc2ncc(F)c(NCc3csc4ccccc34)n2)c1 [Compound R945146, N4-(Benzothiophen-3-ylmethyl)-5-fluoro-N2-(3-hydroxyphenyl)-2,4-pyrimidinediamine]
IC50 ([1]; Homo sapiens, Mast cell): > 10 µM | IC50 ([2]; Homo sapiens, Mast cell): 3.76 µM

N#Cc1cc(Nc2ncc(F)c(Nc3ccc(O)c(C#N)c3)n2)ccc1O [Compound R950092, N2,N4-Bis(3-cyano-4-hydroxyphenyl)-5-fluoro-2,4-pyrimidinediamine]
IC50 ([1]; Homo sapiens, Mast cell): > 10 µM | IC50 ([2]; Homo sapiens, Mast cell): > 10 µM

Brc1cnc(Nc2ccccc2-c2ccccc2)nc1Nc1ccccc1-c1ccccc1 [Compound R925798, N2,N4-Bis(2-phenylphenyl)-5-bromo-2,4-pyrimidinediamine]
IC50 ([1]; Homo sapiens, Mast cell): > 10 µM | IC50 ([2]; Homo sapiens, Mast cell): > 10 µM

CNC(=O)C1Cc2cc(Nc3ncc(F)c(Nc4ccc(Cl)c(Cl)c4)n3)ccc2O1 (racemic) [Compound R927037, (±)-N4-(3,4-Dichlorophenyl)-N2-[2,3-dihydro-2-(N-methylamino)carbonylbenzofuran-5-yl]-5-fluoro-2,4-pyrimidinediamine]
IC50 ([1]; Homo sapiens, Mast cell): > 10 µM | IC50 ([2]; Homo sapiens, Mast cell): 0.233 µM

CC(C)c1ccc(Nc2ncc(F)c(Nc3cccc(O)c3)n2)cc1 [Compound R926778, 5-Fluoro-N4-(3-hydroxyphenyl)-N2-(4-isopropylphenyl)-2,4-pyrimidinediamine]
IC50 ([1]; Homo sapiens, Mast cell): > 10 µM | IC50 ([2]; Homo sapiens, Mast cell): 0.414 µM

Oc1cccc(Nc2nc(NCc3cccnc3)ncc2F)c1 [Compound R945165, 5-Fluoro-N4-(3-hydroxyphenyl)-N2-(3-pyridylmethyl)-2,4-pyrimidinediamine]
IC50 ([1]; Homo sapiens, Mast cell): > 10 µM | IC50 ([2]; Homo sapiens, Mast cell): > 10 µM

Clc1cc(Nc2ccc3c(c2)OCCO3)nc(Nc2ccc3c(c2)OCCO3)n1 [Compound R926245, N2,N4-Bis(3,4-ethylenedioxyphenyl)-6-chloro-2,4-pyrimidinediamine]
IC50 ([1]; Homo sapiens, Mast cell): 9.4 µM | IC50 ([2]; Homo sapiens, Mast cell): 3.1 µM

OCCn1ncc2ccc(Nc3ncc(F)c(Nc4ccc5cnn(CCO)c5c4)n3)cc21 [Compound R935238, N2,N4-Bis[1-(2-hydroxyethyl)indazoline-6-yl]-5-fluoro-2,4-pyrimidinediamine]
IC50 [1]: > 10 µM | IC50 [2]: 1.85 µM

Fc1cnc(NCCc2ccccc2)nc1Nc1ccc2c(c1)OCCO2 (racemic) [Compound R908697, (±)-N4-(3,4-Ethylenedioxyphenyl)-5-fluoro-N2-(2-phenylethyl)-2,4-pyrimidinediamine]
IC50 ([1]; Homo sapiens, Mast cell): > 10 µM | IC50 ([2]; Homo sapiens, Mast cell): > 10 µM

Fc1cnc(Nc2ccc3cc[nH]c3c2)nc1Nc1ccc2c(c1)OCCO2 [Compound R926750, N4-(3,4-Ethylenedioxyphenyl)-5-fluoro-N2-[(1H)-indol-6-yl]-2,4-pyrimidinediamine]
IC50 ([1]; Homo sapiens, Mast cell): > 10 µM | IC50 ([2]; Homo sapiens, Mast cell): 0.361 µM

Fc1cnc(Nc2cccc(-c3ccccc3)c2)nc1Nc1cccc(-c2ccccc2)c1 [Compound R926403, N2,N4-Bis[(3-phenyl)phenyl]-5-fluoro-2,4-pyrimidinediamine]
IC50 ([1]; Homo sapiens, Mast cell): > 10 µM | IC50 ([2]; Homo sapiens, Mast cell): > 10 µM

CNc1ncc(F)c(Nc2ccc3c(c2)OCCO3)n1 [Compound R950189]
IC50 [1]: > 10 µM | IC50 [2]: 10 µM

Fc1cnc(N=Cc2ccoc2)nc1Nc1ccc2c(c1)OCCO2 [Compound R950203, N4-(3,4-Ethylenedioxyphenyl)-N2-(3-furanylmethylene)-5-fluoro-2,4-pyrimidinediamine]
IC50 ([1]; Homo sapiens, Mast cell): > 10 µM | IC50 ([2]; Homo sapiens, Mast cell): 9.04 µM

CCOC(=O)C=Nc1ccc(Nc2ncc(C(=O)OCC)c(Nc3ccc(N=CC(=O)OCC)cc3)n2)cc1 [Compound R926331, N2,N4-Bis(4-ethoxycarbonylmethyleneaminophenyl)-5-ethoxycarbonyl-2,4-pyrimidinediamine]
IC50 ([1]; Homo sapiens, Mast cell): > 10 µM | IC50 ([2]; Homo sapiens, Mast cell): > 10 µM

COC(=O)c1cc2cc(Nc3ncc(F)c(Nc4ccc(Cl)c(Cl)c4)n3)ccc2o1 [Compound R927027, N4-(3,4-Dichlorophenyl)-5-fluoro-N2-(2-methoxycarbonylbenzofuran-5-yl)-2,4-pyrimidinediamine]
IC50 ([1]; Homo sapiens, Mast cell): > 10 µM | IC50 ([2]; Homo sapiens, Mast cell): > 10 µM

Nc1cc(Nc2ncc(F)c(Nc3ccc(F)c(N)c3)n2)ccc1F [Compound R950159, N2,N4-Bis(3-amino-4-fluorophenyl)-5-fluoro-2,4-pyrimidinediamine]
IC50 ([1]; Homo sapiens, Mast cell): > 10 µM | IC50 ([2]; Homo sapiens, Mast cell): 0.61 µM

COC(=O)c1ccc(-c2cnc(Nc3ccc4c(c3)OCCO4)nc2Nc2ccc3c(c2)OCCO3)cc1 [Compound R925813, N2,N4-Bis(3,4-ethylenedioxyphenyl)-5-(4-methoxycarbonylphenyl)-2,4-pyrimidinediamine]
IC50 ([1]; Homo sapiens, Mast cell): > 10 µM | IC50 ([2]; Homo sapiens, Mast cell): > 10 µM

O=c1ccc2cc(Nc3ncc(F)c(Nc4ccc5oc(=O)ccc5c4)n3)ccc2o1 [Compound R926617, N2,N4-Bis(coumarin-6-yl)-5-fluoro-2,4-pyrimidinediamine]
IC50 ([1]; Homo sapiens, Mast cell): > 10 µM | IC50 ([2]; Homo sapiens, Mast cell): 9.45 µM

COC(=O)C1Cc2cc(Nc3ncc(F)c(Nc4ccc(Cl)c(Cl)c4)n3)ccc2O1 (racemic) [Compound R927031, (±)-N4-(3,4-Dichlorophenyl)-N2-(2,3-dihydro-2-methoxycarbonylbenzofuran-5-yl)-5-fluoro-2,4-pyrimidinediamine]
IC50 ([1]; Homo sapiens, Mast cell): 99 µM | IC50 ([2]; Homo sapiens, Mast cell): 0.215 µM

Nc1nc(Nc2cccc(O)c2)ncc1Br [Compound R935029, 4-Amino-5-bromo-N2-(3-hydroxyphenyl)-2-pyrimidineamine]
IC50 ([1]; Homo sapiens, Mast cell): > 10 µM | IC50 ([2]; Homo sapiens, Mast cell): 2.83 µM

Fc1cnc(Nc2ccc(OCc3ccccc3)c(C(F)(F)F)c2)nc1Nc1ccc(OCc2ccccc2)c(C(F)(F)F)c1 [Compound R950090, N2,N4-Bis(4-benzyloxy-3-trifluoromethylphenyl)-5-fluoro-2,4-pyrimidinediamine]
IC50 ([1]; Homo sapiens, Mast cell): > 10 µM | IC50 ([2]; Homo sapiens, Mast cell): > 10 µM

Oc1cccc(Nc2ncc(F)c(NC(c3ccc(Cl)cc3)c3ccc(Cl)cc3)n2)c1 [Compound R935019, 5-Fluoro-N2-(3-hydroxyphenyl)-N4-[di-(4-chlorophenyl)methyl]-2,4-pyrimidinediamine]
IC50 ([1]; Homo sapiens, Mast cell): > 10 µM | IC50 ([2]; Homo sapiens, Mast cell): 8.8 µM

Oc1cccc(Nc2ncc(F)c(NC3c4ccccc4-c4ccccc43)n2)c1 [Compound R935020, N4-(Fluoren-9-yl)-5-fluoro-N2-(3-hydroxyphenyl)-2,4-pyrimidinediamine]
IC50 ([1]; Homo sapiens, Mast cell): > 10 µM | IC50 ([2]; Homo sapiens, Mast cell): > 10 µM

Fc1cnc(NCCCN2CCN(Cc3c(F)cccc3Cl)CC2)nc1Nc1ccc2c(c1)OCCO2 [Compound R926717, N2-[3-[4-(2-Chloro-6-fluorobenzyl)piperazino]propyl]-N4-(3,4-ethylenedioxyphenyl)-5-fluoro-2,4-pyrimidinediamine]
IC50 ([1]; Homo sapiens, Mast cell): > 10 µM | IC50 ([2]; Homo sapiens, Mast cell): 7.87 µM

COc1ccc(OCCNc2ncc(F)c(Nc3ccc4c(c3)OCCO4)n2)cc1 [Compound R950204, N4-(3,4-Ethylenedioxyphenyl)-5-fluoro-N2-[(4-methoxyphenyloxy)ethyl]-2,4-pyrimidinediamine]
IC50 ([1]; Homo sapiens, Mast cell): > 10 µM | IC50 ([2]; Homo sapiens, Mast cell): 6.29 µM

Fc1cnc(Nc2ccc3c(c2)OC(F)(F)O3)nc1Nc1ccc2c(c1)OCCO2 [Compound R926386, N2-(2,2-Difluorobenzodioxol-5-yl)-N4-(3,4-ethylenedioxyphenyl)-5-fluoro-2,4-pyrimidinediamine]
IC50 ([1]; Homo sapiens, Mast cell): > 10 µM | IC50 ([2]; Homo sapiens, Mast cell): > 10 µM

Fc1cnc(Nc2ccccc2-c2ccccc2)nc1Nc1ccccc1-c1ccccc1 [Compound R926398, N2,N4-Bis(2-phenylphenyl)-5-fluoro-2,4-pyrimidinediamine]
IC50 ([1]; Homo sapiens, Mast cell): > 10 µM | IC50 ([2]; Homo sapiens, Mast cell): > 10 µM

Fc1cnc(Nc2ccc(N3CCN(Cc4ccccc4)CC3)cc2)nc1Nc1ccc(N2CCN(Cc3ccccc3)CC2)cc1 [Compound R945152, N2,N4-Bis[4-(N-benzylpiperazino)phenyl]-5-fluoro-2,4-pyrimidinediamine]
IC50 ([1]; Homo sapiens, Mast cell): > 10 µM | IC50 ([2]; Homo sapiens, Mast cell): 6.94 µM

Fc1cnc(Nc2ccc3[nH]ccc3c2)nc1Nc1ccc2[nH]ccc2c1 [Compound R926582, N2,N4-Bis(indol-5-yl)-5-fluoro-2,4-pyrimidinediamine]
IC50 ([1]; Homo sapiens, Mast cell): > 10 µM | IC50 ([2]; Homo sapiens, Mast cell): 1.3 µM

OCCOc1cccc(Nc2nc(Nc3ccc4c(c3)OCCO4)ncc2F)c1 [Compound R935176, N2-(3,4-Ethylenedioxyphenyl)-5-fluoro-N4-[3-(2-hydroxyethoxy)phenyl]-2,4-pyrimidinediamine]
IC50 ([1]; Homo sapiens, Mast cell): > 10 µM | IC50 ([2]; Homo sapiens, Mast cell): 1.17 µM
